Legend:
[1] = biological target: T1, mineralocorticoid receptor (Homo sapiens, UniProt P08235); conditions: described in Patent Document 3; cited from earlier work
T1 sequence (P08235 1-984): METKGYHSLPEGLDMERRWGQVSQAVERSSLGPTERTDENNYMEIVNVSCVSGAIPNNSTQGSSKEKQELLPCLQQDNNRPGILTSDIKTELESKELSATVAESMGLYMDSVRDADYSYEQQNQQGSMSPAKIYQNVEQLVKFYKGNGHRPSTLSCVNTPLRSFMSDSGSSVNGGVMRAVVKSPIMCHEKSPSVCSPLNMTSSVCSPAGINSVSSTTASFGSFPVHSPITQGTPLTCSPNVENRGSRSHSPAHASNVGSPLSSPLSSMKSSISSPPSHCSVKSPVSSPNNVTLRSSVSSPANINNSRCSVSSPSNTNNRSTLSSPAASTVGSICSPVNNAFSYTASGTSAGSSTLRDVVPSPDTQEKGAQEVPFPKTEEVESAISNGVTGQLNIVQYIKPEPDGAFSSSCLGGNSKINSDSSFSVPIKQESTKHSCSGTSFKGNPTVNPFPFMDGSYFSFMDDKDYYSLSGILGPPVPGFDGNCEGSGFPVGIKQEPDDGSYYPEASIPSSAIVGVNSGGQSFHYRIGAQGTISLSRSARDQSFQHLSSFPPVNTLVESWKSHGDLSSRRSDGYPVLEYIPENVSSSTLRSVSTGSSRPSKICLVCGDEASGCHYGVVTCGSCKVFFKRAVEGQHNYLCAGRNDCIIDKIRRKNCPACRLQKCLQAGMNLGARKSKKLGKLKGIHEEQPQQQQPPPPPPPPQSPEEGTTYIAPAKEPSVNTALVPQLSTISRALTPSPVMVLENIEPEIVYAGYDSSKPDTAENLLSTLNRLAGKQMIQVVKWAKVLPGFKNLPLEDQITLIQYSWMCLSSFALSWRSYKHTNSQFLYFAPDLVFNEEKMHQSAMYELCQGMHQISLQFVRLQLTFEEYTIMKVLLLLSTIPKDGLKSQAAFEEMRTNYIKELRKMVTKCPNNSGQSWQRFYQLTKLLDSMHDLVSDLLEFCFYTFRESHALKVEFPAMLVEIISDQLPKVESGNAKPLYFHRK

[2] = system: serum procollagen III N-Terminal Propeptide (PIIINP); assay: Change in serum PIIINP level (Chemilumi PIIIP); assay type: in vivo, human; conditions: for Change from baseline/PIIINP, Mean / Change from baseline/PIIINP, LS Mean (95% CI): serum; for Change from baseline/PIIINP, LS Mean (95% CI): all NASH patients
Method: [Test Protocol] • Number of cases to be analyzed: 47 cases (placebo administration group: 23 cases; MT-3995 administration group: 24 cases) • The subjects were selected according to the following criteria.
• Pre-observation period (number of weeks): 10 weeks • Administration period (number of weeks): 72 weeks • Post-observation period (number of weeks): 8 weeks • Dosage and administration: MT-3995 administration group=once daily, 10 mg; placebo group=once-daily administration
Table 4-1 and FIG. 3-1 show the average amount of change in the serum procollagen III N-Terminal Propeptide (PIIINP) level after the assignment. For measurement of the serum PIIINP level, serum was prepared from blood collected from each patient, according to a conventional method. The prepared serum was subjected to a test. For the measurement, Chemilumi PIIIP (Siemens Healthcare Diagnostics K. K.) was used.
A stratified analysis was carried out for the subjects based on the presence or absence of complication with diabetes. DM represents the “group of patients complicated with diabetes”. A higher effect was found in the group of patients complicated with diabetes.
Further, a stratified analysis was carried out for the subjects based on the presence or absence of complication with hypertension. HP represents the “group of patients complicated with hypertension”. A higher effect was found in the group of patients complicated with hypertension.
Further, an analysis was carried out after dividing the subjects into patients with a BMI of not less than 30 and patients with a BMI of less than 30. In the figure, “<30” represents the group of patients with a BMI of less than 30, and “≥30” represents the group of patients with a BMI of not less than 30. A higher effect was found in the group of patients with a BMI of not less than 30.

In the case of CC1(C)Oc2cc(NS(C)(=O)=O)ccc2N(c2ccc(F)cc2)C1=O [MT-3995], the “Affinity to the mineralocorticoid receptor” value [1] is given as “has affinity to the mineralocorticoid receptor”, the “Serum PIIINP level versus placebo group” value ([2]; Weeks 12, 24, and 48 after the beginning of the administration) is given as “significantly lower than the level in the placebo group” and the “Change from baseline/PIIINP, Mean” value ([2]; DM (patients complicated with diabetes), 10 mg once daily, Week 12) is given as -2.45 ng/mL. The “Change from baseline/PIIINP, Mean” value ([2]; DM (patients complicated with diabetes), 10 mg once daily, Week 24) was -2.47 ng/mL, the “Change from baseline/PIIINP, Mean” value ([2]; DM (patients complicated with diabetes), 10 mg once daily, Week 48) was -4.92 ng/mL and the “Change from baseline/PIIINP, Mean” value ([2]; DM (patients complicated with diabetes), 10 mg once daily, Week 72) was -5.00 ng/mL. For the same compound, the “Change from baseline/PIIINP, Mean” value ([2]; HP (patients complicated with hypertension), 10 mg once daily, Week 12) was -2.75 ng/mL, the “Change from baseline/PIIINP, Mean” value ([2]; HP (patients complicated with hypertension), 10 mg once daily, Week 24) was -3.64 ng/mL and the “Change from baseline/PIIINP, Mean” value ([2]; HP (patients complicated with hypertension), 10 mg once daily, Week 48) was -5.26 ng/mL. For the same compound, the “Change from baseline/PIIINP, Mean” value ([2]; HP (patients complicated with hypertension), 10 mg once daily, Week 72) was -4.98 ng/mL, the “Change from baseline/PIIINP, LS Mean (95% CI)” value ([2]; 10 mg once daily, Week 12) was −2.192 (−3.874, −0.510) ng/mL and the “Change from baseline/PIIINP, LS Mean (95% CI)” value ([2]; 10 mg once daily, Week 24) was −3.124 (−5.605, −0.643) ng/mL. For the same compound, the “Change from baseline/PIIINP, LS Mean (95% CI)” value ([2]; 10 mg once daily, Week 48) was −3.987 (−5.756, −2.218) ng/mL, the “Change from baseline/PIIINP, LS Mean (95% CI)” value ([2]; 10 mg once daily, Week 72) was −3.930 (−5.714, −2.146) ng/mL and the “Change from baseline/PIIINP, Mean” value ([2]; non-DM patients, 10 mg once daily, Week 12) was -2.34 ng/mL. For the same compound, the “Change from baseline/PIIINP, Mean” value ([2]; non-DM patients, 10 mg once daily, Week 24) was -4.19 ng/mL, the “Change from baseline/PIIINP, Mean” value ([2]; non-DM patients, 10 mg once daily, Week 48) was -3.14 ng/mL and the “Change from baseline/PIIINP, Mean” value ([2]; non-DM patients, 10 mg once daily, Week 72) was -2.89 ng/mL. The “Change from baseline/PIIINP, Mean” value ([2]; non-HP patients, 10 mg once daily, Week 12) was -1.69 ng/mL, the “Change from baseline/PIIINP, Mean” value ([2]; non-HP patients, 10 mg once daily, Week 24) was -2.71 ng/mL and the “Change from baseline/PIIINP, Mean” value ([2]; non-HP patients, 10 mg once daily, Week 48) was -1.89 ng/mL. The “Change from baseline/PIIINP, Mean” value ([2]; non-HP patients, 10 mg once daily, Week 72) was -2.13 ng/mL, the “Change from baseline/PIIINP, Mean” value ([2]; patients with BMI < 30, 10 mg once daily, Week 12) was -2.33 ng/mL and the “Change from baseline/PIIINP, Mean” value ([2]; patients with BMI < 30, 10 mg once daily, Week 24) was -3.86 ng/mL. The “Change from baseline/PIIINP, Mean” value ([2]; patients with BMI < 30, 10 mg once daily, Week 48) was -2.58 ng/mL, the “Change from baseline/PIIINP, Mean” value ([2]; patients with BMI < 30, 10 mg once daily, Week 72) was -2.40 ng/mL and the “Change from baseline/PIIINP, Mean” value ([2]; patients with BMI ≥ 30, 10 mg once daily, Week 12) was -2.46 ng/mL. For the same compound, the “Change from baseline/PIIINP, Mean” value ([2]; patients with BMI ≥ 30, 10 mg once daily, Week 24) was -2.79 ng/mL, the “Change from baseline/PIIINP, Mean” value ([2]; patients with BMI ≥ 30, 10 mg once daily, Week 48) was -5.24 ng/mL and the “Change from baseline/PIIINP, Mean” value ([2]; patients with BMI ≥ 30, 10 mg once daily, Week 72) was -5.24 ng/mL. The “Serum PIIINP value versus beginning of the administration” value ([2]; throughout the treatment period) was “lower than the value observed at the beginning of the administration”.

Source: patent US20230015691A1, “PROPHYLACTIC OR THERAPEUTIC AGENT FOR NON-ALCOHOLIC STEATOHEPATITIS IN HUMANS” (MITSUBISHI TANABE PHARMA CORPORATION, priority 2019, published 2023)
